This passage reports Kd results from PubChem BioAssay AID1033 (Sanford-Burnham Center for Chemical Genomics, 2008).

For orientation: Kd means the equilibrium constant for the complex coming apart.

Structures are written as SMILES. Activity calls are given as the source filed them. No rule for the calls is given here.

This test deals with Chaperone protein DnaK (Escherichia coli (strain K12)) (UniProt P0A6Y8). Briefly: E. coli DnaK SBD ligand binding – biophysical, NMR, chaperone (AID 1033). Conditions: Purified DnaK SBD.
Chain of Chaperone protein DnaK (Escherichia coli (strain K12)) (P0A6Y8 whole entry, looked up): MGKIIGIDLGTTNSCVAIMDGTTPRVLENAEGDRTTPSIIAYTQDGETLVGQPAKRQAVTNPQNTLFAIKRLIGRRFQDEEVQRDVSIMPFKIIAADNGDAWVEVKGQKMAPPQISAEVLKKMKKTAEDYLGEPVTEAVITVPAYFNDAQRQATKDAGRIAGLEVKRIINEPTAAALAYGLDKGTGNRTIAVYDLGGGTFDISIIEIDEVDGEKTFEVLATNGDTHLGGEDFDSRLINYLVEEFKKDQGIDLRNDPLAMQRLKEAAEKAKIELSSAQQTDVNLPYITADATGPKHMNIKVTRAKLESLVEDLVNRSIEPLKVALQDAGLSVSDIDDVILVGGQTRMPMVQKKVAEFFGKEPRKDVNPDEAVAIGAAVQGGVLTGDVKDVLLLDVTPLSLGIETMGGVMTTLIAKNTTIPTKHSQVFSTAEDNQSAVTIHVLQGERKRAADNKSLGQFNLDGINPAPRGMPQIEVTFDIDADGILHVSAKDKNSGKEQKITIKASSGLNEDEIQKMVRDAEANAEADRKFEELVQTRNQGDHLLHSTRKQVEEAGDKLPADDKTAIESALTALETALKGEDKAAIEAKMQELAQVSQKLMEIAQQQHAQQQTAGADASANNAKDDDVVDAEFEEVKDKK

For `COc1cc(C(=O)NCC2CCCO2)cc(OC)c1OC` (centres undefined), the Kd is > 4 mM (inactive). Then `Cc1nc(SCC#N)c2c3c(sc2n1)CCC3`, with > 4 mM (inactive); and `CCc1c(C(=O)Nc2ccncc2)csc1C`, with > 4 mM (inactive); and `COc1c2occc2c(OC)c2c(=O)cc(C)oc12`, with > 4 mM (inactive). Consider `Cc1nnsc1C(=O)Nc1cccc(S(N)(=O)=O)c1`, for which the Kd was > 4 mM (inactive).

In the case of `OC/C=C/c1ccc(O)c(O)c1`, the Kd was > 4 mM (inactive). Then `O=C(O)c1cccnc1-c1nc2ccccc2s1`, with > 4 mM (inactive); and `O=C(Nc1ccc(Cl)cc1)N1CCCC1`, with > 4 mM (inactive). With `CC1=CC(=O)CC(C)(C)C1(O)/C=C/C(C)=C\C(=O)O` (centres undefined) the figure was > 4 mM (inactive); with `NC(=O)CN1CCC(c2nc3ccccc3[nH]2)CC1`, > 4 mM (inactive); with `CC12CN3CC(C)(CN(C1)C3c1cccs1)C2O` (centres undefined), > 4 mM (inactive). Regarding `Cc1ccc(S(=O)(=O)CC(=O)N(C)C)cc1`, the Kd was > 4 mM (inactive).

Turning to `OCn1nnn(-c2ccccc2)c1=S`, the Kd is > 4 mM (inactive). Then `OC12CC3CC(C1)C1(NCCS1)C(C3)C2` (centres undefined), with > 4 mM (inactive); and `Cc1cccc(NC(=O)c2ccccc2C(=O)O)c1`, with > 4 mM (inactive). With `COc1cccc2onc(N)c12` the figure was > 4 mM (inactive); with `Brc1cccc(-c2nnco2)c1`, > 4 mM (inactive). Take `O=C(c1cccs1)N1CCCc2ccccc21`: the Kd was > 4 mM (inactive). Then `Nc1cccc(-n2cccc2)c1`, with > 4 mM (inactive); and `COC1=C(OC)C(=O)C(C/C=C(\C)CC/C=C(\C)CC/C=C(\C)CC/C=C(/C)CC/C=C(\C)CC/C=C(\C)CC/C=C(\C)CC/C=C(\C)CC/C=C(\C)CCC=C(C)C)=C(C)C1=O`, with > 4 mM (inactive).

Consider `O=C1C2C3C=CC(O3)C2C(=O)N1c1ccccc1` (centres undefined), for which the Kd is > 4 mM (inactive).

For the molecule `NC(=O)CSc1nnc(-c2cccnc2)o1`, the Kd was > 4 mM (inactive).

As for `NC(=O)c1ccc(Cl)c(N2C(=O)CCC2=O)c1`, the Kd is > 4 mM (inactive). Then `COc1ccc(NC(=O)CCCC(=O)O)c(OC)c1`, with > 4 mM (inactive); and `Cc1n[nH]c(=O)c2ncn(C)c12`, with > 4 mM (inactive); and `NC(=O)c1ccccc1NC(=O)C1CC1`, with > 4 mM (inactive). Then `Nc1ncnc2c1ncn2C1C[C@H](O)[C@@H](CO)O1` (some centres undefined), with > 4 mM (inactive). Then `COc1ccc(C2CC(=O)NN2)cc1OC1CCCC1` (centres undefined), with > 4 mM (inactive); and `O=C(O)c1ccccc1N1CCOCC1`, with > 4 mM (inactive). For `NC(=O)c1ccc(NC(=O)c2cccnc2)cc1`, the Kd is > 4 mM (inactive). Consider `Nc1ccc(S(=O)(=O)Nc2ccc(F)cc2F)cc1`, for which the Kd is > 4 mM (inactive). Then `COc1cccc(Oc2ccc(N)cc2)c1`, with > 4 mM (inactive); and `Cc1c(C)c2c(c(C)c1O)CCC(C)(CCCC(C)CCCC(C)CCCC(C)C)O2` (centres undefined), with > 4 mM (inactive). Regarding `Cc1nnc(NCCN2CCOCC2)[nH]c1=O`, the Kd is > 4 mM (inactive). With `Cc1cc(=O)oc2cc3c(cc12)OCCO3` the figure was > 4 mM (inactive).

For `C/C=C(\C)c1nnc(NC(=O)c2ccco2)s1`, the Kd is > 4 mM (inactive).

On to `O=c1n(-c2cccc(Cl)c2)c(=O)n2n1CCC2`, for which the Kd is > 4 mM (inactive). With `CC1(C)CC2C1CCC1(C)OC1CCC2(C)O` (centres undefined) the figure was > 4 mM (inactive); with `CC1CN(C(=O)c2ccncc2)CC(C)O1` (centres undefined), > 4 mM (inactive). Then `O=C1CSC(=Nc2ccc(O)cc2)N1`, with > 4 mM (inactive); and `O=C(Nc1cccnc1)c1cnn2cccnc12`, with > 4 mM (inactive). With `COC(=O)c1noc(C)c1C(C)=O` the figure was > 4 mM (inactive); with `Cc1cc(O)c2c(c1)C(=O)c1cccc(O)c1C2=O`, > 4 mM (inactive); with `Nc1[nH]c(=S)ncc1S(=O)(=O)c1ccccc1`, > 4 mM (inactive). For `CNc1nc(C)nc(-n2nc(C)cc2C)n1`, the Kd is > 4 mM (inactive). Then `O=S(=O)(Nc1cccc2cn[nH]c12)c1ccc(F)cc1`, with > 4 mM (inactive); and `S=C(c1ccc(N2CCOCC2)cc1)N1CCCCC1`, with > 4 mM (inactive). Then `O=c1c(O)c(-c2ccc(O)c(O)c2)oc2cc(O)ccc12`, with > 4 mM (inactive).

Consider `C[C@]12CCC(=O)C=C1CCC1C2C(=O)C[C@@]2(C)C1CC[C@]2(O)C(=O)CO` (some centres undefined), for which the Kd was > 4 mM (inactive).

As to `OCc1sccc1-n1cccc1`, the Kd is > 4 mM (inactive). With `CCOC(=O)N1CCN(c2ncnc3c2cnn3C)CC1` the figure was > 4 mM (inactive); with `CCC[C@@H]1CCCCN1`, > 4 mM (inactive); with `COC(=O)C(O)[C@@H]1C2(C)C(=O)[C@@H](CC3=C4CC(=O)O[C@@H](c5ccoc5)[C@]4(C)CCC32)[C@H](OC(C)=O)C1(C)C` (some centres undefined), > 4 mM (inactive). With `Cc1ccc(C(=O)NCCO)c(Cl)c1`, the Kd was > 4 mM (inactive).

Consider `O=C1CN(c2ccccc2)CC(=O)N1`, for which the Kd was > 4 mM (inactive). Then `CCC(C)C(=O)O[C@H]1[C@H](O)C2C(CN3CC(C)CCC3[C@@]2(C)O)C2C[C@]34O[C@]5(O)C(OC(=O)C(C)(O)C(C)O)CC[C@@]3(C)C5C(OC(C)=O)[C@@H](OC(C)=O)C4[C@@]21O` (some centres undefined), with > 4 mM (inactive); and `O=C(NCCO)c1cc2ccccc2cc1O`, with > 4 mM (inactive). Then `O=C(CSc1ncn[nH]1)c1ccccc1`, with > 4 mM (inactive); and `O=NN1C(=O)c2ccccc2C1=O`, with > 4 mM (inactive); and `COc1cccc(NC(=O)c2ncn[nH]2)c1`, with > 4 mM (inactive).

Regarding `NC(=O)C1CCN(C(=S)c2ccccc2)CC1`, the Kd was > 4 mM (inactive). Turning to `NC(=O)/C=C/C(=O)Nc1ccccc1`, the Kd is > 4 mM (inactive). With `CC(=O)Nc1c(C)n(C)n(-c2ccccc2)c1=O` the figure was > 4 mM (inactive); with `Cc1noc(C)c1C(=O)Nc1ccccn1`, > 4 mM (inactive); with `N#Cc1cnn(-c2ccc(Cl)cc2)c1N`, > 4 mM (inactive). Then `CCc1c(C)n([O-])c2c([n+]1=O)CCC2`, with > 4 mM (inactive); and `Nc1c(S(=O)(=O)c2ccccc2)csc1C(=O)O`, with > 4 mM (inactive); and `CN(C)Cc1c(N)cccc1O`, with > 4 mM (inactive).

For the molecule `NC(=O)CSc1nnc(-c2ccncc2)o1`, the Kd was > 4 mM (inactive). Then `COc1cc(/C=C/C(=O)/C=C(O)/C=C/c2ccc(O)c(OC)c2)ccc1O`, with > 4 mM (inactive); and `Oc1ccc(-c2n[nH]c(=S)n2Cc2ccco2)cc1`, with > 4 mM (inactive); and `c1ccc(C2NCCc3[nH]cnc32)cc1` (centres undefined), with > 4 mM (inactive). With `CCSc1nnc2[nH]c(=O)cc(C)n12` the figure was > 4 mM (inactive). `CC1=CC(C)C(C(=O)O)C(C(=O)N2CCN(C)CC2)C1` (centres undefined): the Kd is > 4 mM (inactive). Then `Cc1ccc(-c2nn(C)c(=O)c3ccccc23)cc1CO`, with > 4 mM (inactive).

For the molecule `O=C(O)c1cn(-c2ccccc2)nc1-c1cccnc1`, the Kd was > 4 mM (inactive).

With `O=c1c(O)c(-c2ccc(O)cc2O)oc2cc(O)cc(O)c12`, the Kd is > 4 mM (inactive). With `O=C(O)Cn1cc(C(=O)c2cccs2)c2ccccc21` the figure was > 4 mM (inactive); with `C[C@@H](N)[C@@H](O)c1ccccc1`, > 4 mM (inactive); with `O=C1OC(N2CCOCC2)c2ccccc21` (centres undefined), > 4 mM (inactive). Regarding `Cc1cc(C)n(C2CCS(=O)(=O)C2)n1` (centres undefined), the Kd is > 4 mM (inactive). With `COc1ccccc1CNc1nc2nc(C)cc(=O)n2[nH]1`, the Kd was > 4 mM (inactive). As for `S=C(NC1=NCCS1)Nc1ccccc1`, the Kd was > 4 mM (inactive). Take `Cc1ccc2cc(N)ccc2n1`: the Kd was > 4 mM (inactive).

Regarding `Nc1oncc1-c1ccccn1`, the Kd is > 4 mM (inactive). Then `Cc1ccc(F)cc1NC(=O)c1ccc2c(c1)OCO2`, with > 4 mM (inactive); and `Cc1ccc2nc(SCC(=O)O)nc(C)c2c1`, with > 4 mM (inactive); and `C=C1CCC(C2CC(=O)OC2=O)C(=O)CCC2C1CC2(C)C` (centres undefined), with > 4 mM (inactive). Then `CC(=O)Nc1ccc(S(=O)(=O)N(C)C)cc1`, with > 4 mM (inactive); and `COc1cc(C)nc(N(CCO)CCO)n1`, with > 4 mM (inactive); and `COc1cc(-c2coc3cc(OC)c(OC)c(OC)c3c2=O)cc(OC)c1OC`, with > 4 mM (inactive). `CNc1nc(OC)nc(N2CCOCC2)n1`: the Kd was > 4 mM (inactive).

Consider `O=C1Nc2ccccc2C1C1(O)C(=O)Nc2ccc(F)cc21` (centres undefined), for which the Kd was > 4 mM (inactive). Then `Nc1ccc(N2CCCCC2)cc1`, with > 4 mM (inactive). Then `O=C(O)Cn1cc(C(F)(F)F)ccc1=O`, with > 4 mM (inactive); and `O=C(NC(=O)N1CCOCC1)c1ccccc1`, with > 4 mM (inactive); and `CC(=O)Nc1sccc1C(N)=O`, with > 4 mM (inactive). `NN1C(=O)CSC1=Nc1ccccc1`: the Kd was > 4 mM (inactive). Then `N#CCSc1nc2ccccc2c(=O)n1-c1ccccc1`, with > 4 mM (inactive); and `CC1CCc2cc(F)ccc2N1C(=O)c1ccc(=O)[nH]n1` (centres undefined), with > 4 mM (inactive); and `O=c1c(O)c(-c2ccccc2)oc2cc(O)ccc12`, with > 4 mM (inactive). Then `C/C(=C\CO)CC[C@H](C)CCC[C@H](C)CCCC(C)C`, with > 4 mM (inactive); and `COc1cc(O)c(C(=O)c2ccccc2)cc1O`, with > 4 mM (inactive); and `Cc1ccc(CO)o1`, with > 4 mM (inactive).
